Measurements reported in patent US4393228A, “Epoxysuccinic acid derivatives” (Taisho Pharmaceutical Co., Ltd., priority 1977, dated 1983).
Like-named read-outs stand apart in the source and are kept apart here.

Experiments:
[1] = target: T1, papain (Carica papaya, UniProt P00784); assay: Papain inhibitory activity (milk casein digestion); assay type: biochemical; settings: papain 80 μg/ml 0.5 ml, cysteine, pH 6.8, 1% milk casein, 40° C., 10 minutes
T1 construct: purchased Sigma Chem. Co
T1 sequence (P00784 134-345): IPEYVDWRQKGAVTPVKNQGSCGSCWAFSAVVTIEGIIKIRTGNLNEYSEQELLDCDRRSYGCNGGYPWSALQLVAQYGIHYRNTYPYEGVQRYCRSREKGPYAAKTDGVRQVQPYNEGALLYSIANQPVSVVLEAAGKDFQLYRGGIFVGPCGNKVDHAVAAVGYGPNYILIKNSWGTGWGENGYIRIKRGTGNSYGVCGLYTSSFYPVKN
Summary of the method: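 Papain (80 μg/ml stock) preincubated 15 min at 40 °C with inhibitor, cysteine/EDTA activator and phosphate buffer pH 6.8. Then 1% milk casein digested 10 min at 40 °C, stopped with trichloroacetic acid and filtered; filtrate absorbance at 280 nm gives percent inhibition versus no-inhibitor control.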

[2] = tested on: adjuvant induced polyarthritis; assay: Inhibition of adjuvant induced polyarthritis in rats (hind paw volume); assay type: in vivo, Sprague Dawley rat; settings: Rattus norvegicus
Protocol: Effect of the compounds of this invention on the development of adjuvant-induced polyarthritis in rats was assayed as follows: Adjuvant arthritis was produced by a single intracutaneous injection of 0.1 ml of the adjuvant mixture containing heat-killed mycobacteria of the human Aoyama B strain suspended in liquid paraffin in 0.6% in the middle part of the distal tail of Sprague Dawley rat (female, 8 weeks old). […] The activity was measured as the mean inhibition percent for the increase of the hind paw volume of the 8 rats/group on the days 17 and 23 on which the legs become inflamed and reach maximum volumes. The compound Nos. in Table 2 are as defined in Examples as described hereinafter.

[3] = 408 h, 100 mg/kg of body weight, daily oral, day 17, read-out: Inhibition % 17 days (increase of hind paw volume)
[4] = 552 h, 100 mg/kg of body weight, daily oral, day 23, read-out: Inhibition % 23 days (increase of hind paw volume)

SMILES	ID50 (amount of inhibitor for 50% inhibition) [1]	other results
C[C@H]1CC[C@@H](OC(=O)[C@@H]2O[C@H]2C(=O)O[C@H]2CC[C@@H](C)CC2)CC1 (relative stereo) [EP-17, di-4'-cis-methylcyclohexyl epoxysuccinate]	1.79 γ	inhibition in vivo at 100 mg/kg [2, 3]: 100%; inhibition in vivo at 100 mg/kg [2, 4]: 78.7%
O=C([O-])C1OC1C(=O)N[C@@H](Cc1ccccc1)C(=O)[O-].[K+].[K+] (stereo partly drawn) [EP-175, N-(3-carboxyoxirane-2-carbonyl)-L-phenylalanine dipotassium salt]	1.90 γ	inhibition in vivo at 100 mg/kg ([2]; po, 408 h, read-out: Inhibition % 17 days (increase of hind paw volume)): 32%; inhibition in vivo at 100 mg/kg ([2]; po, 552 h, read-out: Inhibition % 23 days (increase of hind paw volume)): 31.5%
O=C(O)[C@@H]1O[C@H]1C(=O)OC1CCCCC1 (relative stereo) [EP-2, cyclohexyl potassium epoxysuccinate]	0.07 γ	inhibition in vivo at 100 mg/kg [2, 3]: 43.2%; inhibition in vivo at 100 mg/kg [2, 4]: 50%
CCOC(=O)CCCNC(=O)[C@@H]1O[C@H]1C(=O)OCc1ccc(Cl)cc1 (relative stereo) [EP-189, N-(3-p-chlorobenzyloxycarbonyloxirane-2-carbonyl)-γ-aminobutylic acid ethyl ester]	10.58 γ	
C=CCOC(=O)C1OC1C(=O)N[C@@H](CCCCNC(=O)OCc1ccccc1)C(=O)OCc1ccccc1 (stereo partly drawn) [EP-164, N^α -(3-allyloxycarbonyloxirane-2-carbonyl)-N^ε -carbobenzoxy-L-lysine benzyl ester]	20.49 γ	
COc1ccc(COC(=O)[C@@H]2O[C@H]2C(=O)OCc2ccc(OC)cc2)cc1 (relative stereo) [EP-101, di-p-methoxybenzyl epoxysuccinate]	1.51 γ	
O=C(OCCCC1CCCCC1)[C@@H]1O[C@H]1C(=O)OCCCC1CCCCC1 (relative stereo) [EP-65, di-3-cyclohexanepropyl epoxysuccinate]	69.44 γ	
C[C@H]1CC[C@H](OC(=O)[C@@H]2O[C@H]2C(=O)O[C@H]2CC[C@H](C)CC2)CC1 (relative stereo) [EP-15, di-4'-trans-methylcyclohexyl epoxysuccinate]	1.69 γ	
CCOC(=O)C1OC1C(=O)N[C@@H](CCCCN)C(=O)O (stereo partly drawn) [EP-201, N-(3-ethoxycarbonyloxirane-2-carbonyl)-L-lysine]	25.51 γ	
N=C(NCCC[C@H](NC(=O)C1OC1C(=O)OCc1ccccc1)C(=O)OCc1ccccc1)N[N+](=O)[O-] (stereo partly drawn) [EP-178, N-(3-benzyloxycarbonyloxirane-2-carbonyl)-N^G -nitro-L-arginine benzyl ester]	4.63 γ	
O=C(OCc1cccc(C(F)(F)F)c1)[C@@H]1O[C@H]1C(=O)OCc1cccc(C(F)(F)F)c1 (relative stereo) [EP-99, di-3'-trifluoromethylbenzyl epoxysuccinate]	0.50 γ	
O=C(OC1CC2CCC1CC2)[C@@H]1O[C@H]1C(=O)OC1CC2CCC1CC2 (relative stereo) [EP-51, dibicyclo [2,2,2] octyl epoxysuccinate]	0.30 γ	
Cc1ccc(COC(=O)[C@@H]2O[C@H]2C(=O)OCc2ccc(C)cc2)cc1 (relative stereo) [EP-89, di-p-methylbenzyl epoxysuccinate]	1.39 γ	
O=C(O)[C@H]1O[C@@H]1C(=O)OCc1ccccc1F (relative stereo) [EP-124, o-fluorobenzyl potassium epoxysuccinate]	0.10 γ	
CCCCOC(=O)C1OC1C(=O)N[C@@H](CCCNC(=O)OCc1ccccc1)C(=O)OCc1ccccc1 (stereo partly drawn) [EP-183, N^α -(3-n-buthoxycarbonyloxirane-2-carbonyl)-N^δ -carbobenzoxy-L-ornithine benzyl ester]	4.46 γ	
O=C(OC1CC1)[C@@H]1O[C@H]1C(=O)OC1CC1 (relative stereo) [EP-27, dicyclopropyl epoxysuccinate]	20.00 γ	
O=C(O)[C@@H]1O[C@H]1C(=O)OCC1CCCC1 (relative stereo) [EP-44, cyclopentanemethyl potassium epoxysuccinate]	0.07 γ	
O=C(NCCCC[C@H](NC(=O)C1OC1C(=O)OCCCc1ccccc1)C(=O)OCc1ccccc1)OCc1ccccc1 (stereo partly drawn) [EP-188, N^α -[3-(3'-phenylpropyloxy)-carbonyloxirane-2-carbonyl]-N^ε -carbobenzoxy-L-lysine benzyl ester]	1.86 γ	
CC1CCCC(C)C1OC(=O)C1OC1C(=O)O (stereo not drawn) [EP-14, 2',6'-trans-dimethylcyclohexyl potassium epoxysuccinate]	0.10 γ	

SMILES	ID50 (amount of inhibitor for 50% inhibition) [1]	other results
Cc1ccc(COC(=O)[C@@H]2O[C@H]2C(=O)O)cc1 (relative stereo) [EP-90, p-methylbenzyl potassium epoxysuccinate]	0.25 γ	
O=C(O)[C@H]1O[C@@H]1C(=O)OCC=Cc1ccccc1 (relative stereo) [EP-134, 3'-phenyl-2'-propenyl potassium epoxysuccinate]	0.71 γ	
Cc1cccc(COC(=O)[C@@H]2O[C@H]2C(=O)O)c1Br (relative stereo) [EP-98, 2'-bromo-3'-methylbenzyl potassium epoxysuccinate]	0.32 γ	
O=C(OCc1ccccc1F)[C@H]1O[C@@H]1C(=O)OCc1ccccc1F (relative stereo) [EP-123, di-o-fluorobenzyl epoxysuccinate]	0.30 γ	
O=C(OC1CC2CCC1C2)C1OC1C(=O)OC1CC2CCC1C2 (centres unmarked) [EP-55, dinorbornyl epoxysuccinate]	0.28 γ	
CCOC(=O)C1OC1C(=O)N[C@H](C(=O)OCc1ccccc1)C(C)C (stereo partly drawn) [EP-158, N-(3-ethoxycarbonyloxirane-2-carbonyl)-L-valine benzyl ester]	3.47 γ	
CCOC(=O)[C@H]1O[C@@H]1C(=O)NCC(=O)OCc1ccccc1 (relative stereo) [EP-154, N-(3-ethoxycarbonyloxirane-2-carbonyl)-glycine benzyl ester]	43.90 γ	
CCCCCCCCCCCCOC(=O)[C@H]1O[C@@H]1C(=O)O (relative stereo) [EP-145, n-dodecyl potassium epoxysuccinate]	0.14 γ	
O=C(O)[C@H]1O[C@@H]1C(=O)OCc1ccccc1I (relative stereo) [EP-106, o-iodobenzyl potassium epoxysuccinate]	0.14 γ	
O=C(O)[C@@H]1O[C@H]1C(=O)O[C@@H]1CCCC[C@H]1Cl (relative stereo) [EP-8, 2'-trans-chlorocyclohexyl potassium epoxysuccinate]	0.07 γ	
CCOC(=O)[C@H](Cc1ccccc1)NC(=O)C1OC1C(=O)OC1C2CC3CC(C2)CC1C3 (stereo partly drawn) [EP-210, N-[3-(2'-adanatyloxy)-carbonyloxirane-2-carbonyl]-L-phenyl alanine ethyl ester]	1.12 γ	
O=C(OCc1ccc(Br)cc1)[C@@H]1O[C@H]1C(=O)OCc1ccc(Br)cc1 (relative stereo) [EP-113, di-p-bromobenzyl epoxysuccinate]	0.99 γ	
O=C(NCCCC[C@H](NC(=O)C1OC1C(=O)OC1CC1)C(=O)OCc1ccccc1)OCc1ccccc1 (stereo partly drawn) [EP-204, N^α -(3-cyclopropyloxycarbonyloxirane-2-carbonyl)-N^ε-carbobenzoxy-L-lysine benzyl ester]	15.20 γ	
O=C(OC1CC(Cl)CC(Cl)C1)C1OC1C(=O)OC1CC(Cl)CC(Cl)C1 (stereo not drawn) [EP-23, di-3',5'-trans-dichlorocyclohexyl epoxysuccinate]	2.45 γ	
CCOC(=O)C1OC1C(=O)N[C@@H](CC(N)=O)C(=O)OCc1ccccc1 (stereo partly drawn) [EP-194, N-(3-ethoxycarbonyloxirane-2-carbonyl)-L-asparagine benzyl ester]	22.60 γ	
O=C(O)[C@H]1O[C@@H]1C(=O)OCc1cccc(Cl)c1 (relative stereo) [EP-110, m-chlorobenzyl potassium epoxysuccinate]	0.24 γ	
CC(C)C[C@H](NC(=O)C1OC1C(=O)OC1CCCC1Br)C(=O)OCc1ccccc1 (stereo partly drawn) [EP-214, N-[3-(2'-trans-bromocyclopentyloxy)-carbonyloxirane-2-carbonyl]-L-leucine benzyl ester]	0.13 γ	
O=C(O)[C@@H]1O[C@H]1C(=O)OC1C2CC3CC(C2)CC1C3 (relative stereo) [EP-38, 2-adamantyl potassium epoxysuccinate]	0.06 γ	
Cc1ccccc1COC(=O)[C@@H]1O[C@H]1C(=O)O (relative stereo) [EP-92, o-methylbenzyl potassium epoxysuccinate]	0.10 γ	
